Data reported in patent US20130295060A1, “METHOD FOR CULTURING CARDIAC PROGENITOR CELLS AND USE OF CARDIAC PROGENITOR CELLS” (Ewha University-Industry Collaboration Foundation, priority 2012, published 2013).

Key:
[1] = system: cardiac progenitor cells; test: Effect of concentration of antifibrinolytic agent on cardiac progenitor cell-induced degradation of hydrogel (toluidine blue); type: cell-based; conditions: 0.5 or 1.0 mg/ml, 1 day culture
Description: 100 μl of the fibrinogen solution containing cardiac progenitor cells was added to 100 μl of each of the respective thrombin solutions containing aminomethylbenzoic acid in concentrations of […], 0.5, and 1.0 mg/ml. After complete formation of hydrogel, cardiac progenitor cells were cultured for 1 day, fixed with formalin, and stained with toluidine blue. An examination was made of the states of the fibrin hydrogels and cells.

[2] = system: cardiac progenitor cell-induced fibrinolysis; test: Inhibition of antifibrinolytic agents against cardiac progenitor cell-induced fibrinolysis (fibrin hydrogel degradation, Alexa Fluor 488-fibrinogen release); type: cell-based
Description: The cardiac progenitor cells were mixed at a density of 2×10^5 cells per 100 μl of each of the four fibrinogen solutions with 100 μl of the thrombin solution, followed by a cross-linking reaction for 2 hrs. Following the formation of hydrogel, 300 μl of a cell culture was added to the hydrogel, and incubated for 1 day. A hydrogel void of cardiac progenitor cells was prepared for use as a control.
Antifibrinolytic agents were purchased from Sigma.

[3] = system: myocardial fragments; test: Organ culture of myocardial fragments in fibrin hydrogel with antifibrinolytic agent (phase-contrast microscopy); type: cell-based, human; conditions: 100 μg/ml solution added to fibrinogen solution, organ culture 3 days
Description: Four fibrinogen solutions with respective concentrations of 2.5, 5.0, 10.0, and 20.0 mg/ml were prepared, and each was added with a 100 μg/ml aminomethylbenzoic acid or tranexamic acid solution, as in Example 5. From the heart of a brain-dead patient, the myocardium was taken after the removal of both the epicardium and the endocardium. […] The myocardial fragments were added at a density of 10 per 0.5 ml of a 1 unit/ml thrombin solution. Each of the four fibrinogen solutions was mixed at a volume ratio of 1:1 with the thrombin solution containing the cardiac fragments. The resulting mixture was aliquoted in an amount of 1 ml per well into 6-multiwell tissue culture plates before performing a polymerization and cross-linking reaction to form a hydrogel.

[4] = system: cardiac progenitor cells; test: Suspension cell culture assay for differentiation into cardiomyocytes (real-time PCR); type: cell-based; conditions: 1 mM in medium, 1 and 3 days
Description: A suspension of cardiac progenitor cells in a medium inducing myocardial differentiation was seeded at a density of 20,000 to 100,000 cells/well into polymer-coated 24-multiwell tissue culture plates preventive of cell and protein adhesion (Ultra-Low Attachment Surface, Corning, Lowell, Mass.). The medium was supplemented with 1 mM Wnt3a or Dkk1 before culturing the cardiac progenitor cells in a suspension culture condition or a monolayer culture condition. After culturing for 1 and 3 days, RNA was isolated from the cardiac progenitor cells and used to synthesize cDNA. Real-time PCR was performed on this cDNA to quantify mRNA levels of bone morphogenetic protein 2 (BMP2), SOX17, ANP, α-MHC, β-MHC, MLC2a, and MLC2v (myosin light chain-2 ventricle), which are involved in the formation of cardiospheres or the Wnt signaling pathway, thus evaluating the potential to differentiate into cardiomyocytes.

NCc1ccc(C(=O)O)cc1 [aminomethylbenzoic acid]
cytotoxicity to the cardiac progenitor cells [1]: caused cytotoxicity

NC[C@H]1CC[C@H](C(=O)O)CC1 [tranexamic acid]
antifibrinolytic activity compared with aminocaproid acid or aprotinin [2]: three times as high
hydrogel as cell adhesion substrate during organ culture of myocardial fragments [3]: stable, three-dimensional cell adhesion substrates

aprotinin
degradation of fibrin hydrogel by cardiac progenitor cells ([2]; hydrogel containing the antifibrinolytic agent, cardiac progenitor cells embedded, incubated 1 day): 95%

B1: Wnt3a: factor of the Wnt signaling pathway added to the differentiation medium (protein, UniProt P56704 19-352, looked up)
Protein Wnt-3a: SYPIWWSLAVGPQYSSLGSQPILCASIPGLVPKQLRFCRNYVEIMPSVAEGIKIGIQECQHQFRGRRWNCTTVHDSLAIFGPVLDKATRESAFVHAIASAGVAFAVTRSCAEGTAAICGCSSRHQGSPGKGWKWGGCSEDIEFGGMVSREFADARENRPDARSAMNRHNNEAGRQAIASHMHLKCKCHGLSGSCEVKTCWWSQPDFRAIGDFLKDKYDSASEMVVEKHRESRGWVETLRPRYTYFKVPTERDLVYYEASPNFCEPNPETGSFGTRDRTCNVSSHGIDGCDLLCCGRGHNARAERRREKCRCVFHWCCYVSCQECTRVYDVHTCK
mRNA levels of ANP, α-MHC, β-MHC, MLC-2a and MLC2v [4]: increased
mRNA levels of BMP2 and SOX17 [4]: increased

B2: Dkk1: factor of the Wnt signaling pathway added to the differentiation medium (protein, UniProt O94907 32-266, looked up)
Dickkopf-related protein 1: TLNSVLNSNAIKNLPPPLGGAAGHPGSAVSAAPGILYPGGNKYQTIDNYQPYPCAEDEECGTDEYCASPTRGGDAGVQICLACRKRRKRCMRHAMCCPGNYCKNGICVSSDQNHFRGEIEETITESFGNDHSTLDGYSRRTTLSSKMYHTKGQEGSVCLRSSDCASGLCCARHFWSKICKPVLKEGQVCTKHRRKGSHGLEIFQRCYCGEGLSCRIQKDHHQASNSSRLHTCQRH
mRNA levels of ANP, α-MHC, β-MHC, MLC-2a and MLC2v [4]: reduced
mRNA levels of BMP2 and SOX17 [4]: decreased
